Experimental data published in article PMC12090182, “Repurposing of the RIPK1-Selective Benzo[1,4]oxazepin-4-one Scaffold for the Development of a Type III LIMK1/2 Inhibitor” (ACS Chemical Biology, 2025).
Where two headings read alike, the source gives them in different places.

Test system: U2OS cells
Type: cell-based
Conditions: U2OS
Outline: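 HEK293T and U2OS cells (DMEM) and MRC-9 fibroblasts (EMEM) exposed to compounds at 1 and 10 μM. Live-cell confocal imaging of cell shape and fluorescence before and at 12, 24 and 48 h. Normalized to 0.1% DMSO; biological duplicates with SEM.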

[1] = 1 µM, 0 h after treatment, biological replicate 1
[2] = 1 µM, 0 h after treatment, biological replicate 2
[3] = 1 µM, 12 h after treatment, biological replicate 1
[4] = 1 µM, 12 h after treatment, biological replicate 2
[5] = 1 µM, 24 h after treatment, biological replicate 1
[6] = 1 µM, 24 h after treatment, biological replicate 2
[7] = 1 µM, 48 h after treatment, biological replicate 1
[8] = 1 µM, 48 h after treatment, biological replicate 2
[9] = 10 µM, 0 h after treatment, biological replicate 1
[10] = 10 µM, 0 h after treatment, biological replicate 2
[11] = 10 µM, 12 h after treatment, biological replicate 1
[12] = 10 µM, 12 h after treatment, biological replicate 2
[13] = 10 µM, 24 h after treatment, biological replicate 1
[14] = 10 µM, 24 h after treatment, biological replicate 2
[15] = 10 µM, 48 h after treatment, biological replicate 1
[16] = 10 µM, 48 h after treatment, biological replicate 2

CC(C)C(=O)Nc1ncc(C(=O)NCCN(Cc2ccccc2)C(=O)c2ccc(S(=O)(=O)Nc3ccccc3)cc2)s1 [TH470]
Cell count normalized to cells treated with DMSO control [1]: 0.966
Cell count per well [1]: 201
Population Fragmented Nuclei (%) [1]: 47.72%
Population Healthy Nuclei (%) [1]: 44.16%
Population Pyknosed Nuclei (%) [1]: 8.12%
Population apoptotic cell (%) [1]: 87.50%
Population cell that influence microtubule strucutre (%) [1]: 6.90%
Population with increased mitochondrial mass (%) [1]: 2.30%
Population with membrane disruption (%) [1]: 9.20%
Cell count normalized to cells treated with DMSO control [2]: 1.038
Cell count per well [2]: 89
Population Fragmented Nuclei (%) [2]: 15.73%
Population Healthy Nuclei (%) [2]: 79.78%
Population Pyknosed Nuclei (%) [2]: 4.49%
Population apoptotic cell (%) [2]: 50.00%
Population cell that influence microtubule strucutre (%) [2]: 5.63%
Population with increased mitochondrial mass (%) [2]: 4.23%
Population with membrane disruption (%) [2]: 4.23%
Cell count normalized to cells treated with DMSO control [3]: 0.8658
Cell count per well [3]: 229
Population Fragmented Nuclei (%) [3]: 36.24%
Population Healthy Nuclei (%) [3]: 55.96%
Population Pyknosed Nuclei (%) [3]: 7.80%
Population apoptotic cell (%) [3]: 76.47%
Population cell that influence microtubule strucutre (%) [3]: 1.64%
Population with increased mitochondrial mass (%) [3]: 4.10%
Population with membrane disruption (%) [3]: 4.10%
Cell count normalized to cells treated with DMSO control [4]: 1.074
Cell count per well [4]: 127
Population Fragmented Nuclei (%) [4]: 17.89%
Population Healthy Nuclei (%) [4]: 73.98%
Population Pyknosed Nuclei (%) [4]: 8.13%
Population apoptotic cell (%) [4]: 100.00%
Population cell that influence microtubule strucutre (%) [4]: 4.40%
Population with increased mitochondrial mass (%) [4]: 4.40%
Population with membrane disruption (%) [4]: 12.09%
Cell count normalized to cells treated with DMSO control [5]: 0.8405
Cell count per well [5]: 262
Population Fragmented Nuclei (%) [5]: 31.54%
Population Healthy Nuclei (%) [5]: 59.62%
Population Pyknosed Nuclei (%) [5]: 8.85%
Population apoptotic cell (%) [5]: 73.91%
Population cell that influence microtubule strucutre (%) [5]: 2.58%
Population with increased mitochondrial mass (%) [5]: 4.52%
Population with membrane disruption (%) [5]: 5.16%
Cell count normalized to cells treated with DMSO control [6]: 1.041
Cell count per well [6]: 148
Population Fragmented Nuclei (%) [6]: 19.59%
Population Healthy Nuclei (%) [6]: 67.57%
Population Pyknosed Nuclei (%) [6]: 12.84%
Population apoptotic cell (%) [6]: 94.74%
Population cell that influence microtubule strucutre (%) [6]: 3.00%
Population with increased mitochondrial mass (%) [6]: 4.00%
Population with membrane disruption (%) [6]: 4.00%
Cell count normalized to cells treated with DMSO control [7]: 0.7931
Cell count per well [7]: 353
Population Fragmented Nuclei (%) [7]: 26.16%
Population Healthy Nuclei (%) [7]: 66.57%
Population Pyknosed Nuclei (%) [7]: 7.27%
Population apoptotic cell (%) [7]: 80.00%
Population cell that influence microtubule strucutre (%) [7]: 3.06%
Population with increased mitochondrial mass (%) [7]: 2.62%
Population with membrane disruption (%) [7]: 3.93%
Cell count normalized to cells treated with DMSO control [8]: 1.07
Cell count per well [8]: 221
Population Fragmented Nuclei (%) [8]: 17.59%
Population Healthy Nuclei (%) [8]: 71.30%
Population Pyknosed Nuclei (%) [8]: 11.11%
Population apoptotic cell (%) [8]: 87.50%
Population cell that influence microtubule strucutre (%) [8]: 5.84%
Population with increased mitochondrial mass (%) [8]: 3.90%
Population with membrane disruption (%) [8]: 5.84%
Cell count normalized to cells treated with DMSO control [9]: 1.105
Cell count per well [9]: 230
Population Fragmented Nuclei (%) [9]: 38.01%
Population Healthy Nuclei (%) [9]: 52.49%
Population Pyknosed Nuclei (%) [9]: 9.50%
Population apoptotic cell (%) [9]: 85.71%
Population cell that influence microtubule strucutre (%) [9]: 0.86%
Population with increased mitochondrial mass (%) [9]: 0.86%
Population with membrane disruption (%) [9]: 3.45%
Cell count normalized to cells treated with DMSO control [10]: 0.875
Cell count per well [10]: 75
Population Fragmented Nuclei (%) [10]: 10.67%
Population Healthy Nuclei (%) [10]: 82.67%
Population Pyknosed Nuclei (%) [10]: 6.67%
Population apoptotic cell (%) [10]: 80.00%
Population cell that influence microtubule strucutre (%) [10]: 3.23%
Population with increased mitochondrial mass (%) [10]: 3.23%
Population with membrane disruption (%) [10]: 6.45%
Cell count normalized to cells treated with DMSO control [11]: 0.9149
Cell count per well [11]: 242
Population Fragmented Nuclei (%) [11]: 26.79%
Population Healthy Nuclei (%) [11]: 56.70%
Population Pyknosed Nuclei (%) [11]: 16.52%
Population apoptotic cell (%) [11]: 64.86%
Population cell that influence microtubule strucutre (%) [11]: 62.20%
Population with increased mitochondrial mass (%) [11]: 41.73%
Population with membrane disruption (%) [11]: 55.91%
Cell count normalized to cells treated with DMSO control [12]: 0.8031
Cell count per well [12]: 95
Population Fragmented Nuclei (%) [12]: 10.75%
Population Healthy Nuclei (%) [12]: 74.19%
Population Pyknosed Nuclei (%) [12]: 15.05%
Population apoptotic cell (%) [12]: 85.71%
Population cell that influence microtubule strucutre (%) [12]: 39.13%
Population with increased mitochondrial mass (%) [12]: 52.17%
Population with membrane disruption (%) [12]: 28.99%
Cell count normalized to cells treated with DMSO control [13]: 0.8277
Cell count per well [13]: 258
Population Fragmented Nuclei (%) [13]: 25.41%
Population Healthy Nuclei (%) [13]: 59.43%
Population Pyknosed Nuclei (%) [13]: 15.16%
Population apoptotic cell (%) [13]: 75.68%
Population cell that influence microtubule strucutre (%) [13]: 25.52%
Population with increased mitochondrial mass (%) [13]: 33.10%
Population with membrane disruption (%) [13]: 26.90%
Cell count normalized to cells treated with DMSO control [14]: 0.7946
Cell count per well [14]: 113
Population Fragmented Nuclei (%) [14]: 10.81%
Population Healthy Nuclei (%) [14]: 73.87%
Population Pyknosed Nuclei (%) [14]: 15.32%
Population apoptotic cell (%) [14]: 70.59%
Population cell that influence microtubule strucutre (%) [14]: 19.51%
Population with increased mitochondrial mass (%) [14]: 31.71%
Population with membrane disruption (%) [14]: 9.76%
Cell count normalized to cells treated with DMSO control [15]: 0.7572
Cell count per well [15]: 337
Population Fragmented Nuclei (%) [15]: 22.70%
Population Healthy Nuclei (%) [15]: 63.19%
Population Pyknosed Nuclei (%) [15]: 14.11%
Population apoptotic cell (%) [15]: 89.13%
Population cell that influence microtubule strucutre (%) [15]: 11.65%
Population with increased mitochondrial mass (%) [15]: 14.56%
Population with membrane disruption (%) [15]: 12.62%
Cell count normalized to cells treated with DMSO control [16]: 0.76
Cell count per well [16]: 157
Population Fragmented Nuclei (%) [16]: 10.00%
Population Healthy Nuclei (%) [16]: 69.33%
Population Pyknosed Nuclei (%) [16]: 20.67%
Population apoptotic cell (%) [16]: 87.10%
Population cell that influence microtubule strucutre (%) [16]: 14.42%
Population with increased mitochondrial mass (%) [16]: 14.42%
Population with membrane disruption (%) [16]: 11.54%
